Assay results as given in publication PMC8956739, “A synthetic lipopeptide targeting top-priority multidrug-resistant Gram-negative pathogens” (Nature Communications, 2022).
Values after ≈ are worked out from the molar mass of the structure shown. Values joined by “and” are separate entries in the source; they are usually repeats but may differ in a detail not shown here. Equal values may be shown once. Residues, ends and D or L forms follow the SMILES beside them.

Assays:
P. aeruginosa ATCC 27853 [1] = experiment: Neutropenic mouse bloodstream infection model; assay type: in vivo; settings: single IV dose 4 mg/kg; for Log10 CFU/mL blood at 4 h, Mean / Δlog10 CFU/mL blood (mean) / Log10 CFU/mL blood at 4 h, single mouse: 4 h; for Δlog10 CFU/mL blood (mean): treated minus control, mean of replicates; for Δlog10 CFU/mL blood (mean) / Log10 CFU/mL blood at 4 h, single mouse / Delta Log10 CFU/mL blood at 4 h, single mouse: 4 mg/kg; for Delta Log10 CFU/mL blood at 4 h, single mouse: treated mouse minus mean of vehicle mice
Protocol: The experimental methodology for the neutropenic mouse bloodstream infection model was described previously. Briefly, 7-week-old female Swiss mice (22–28 g) were rendered neutropenic by intraperitoneal administration of cyclophosphamide, 4 days (150 mg/kg) and 1 day (100 mg/kg) prior to inoculation. Bloodstream infection was established by intravenous administration of a 50 µL bolus of early log-phase bacterial suspension (4 × 10^8 CFU/mL). Lipopeptide solutions were prepared at 1 mg/mL (free base) in sterile saline. At 2 h after inoculation, mice (n = 3) were injected intravenously with lipopeptide solution at 4 mg/kg (free base) or saline control. At 0 and 4 h after administration, blood was collected, diluted serially in sterile saline, and plated on nutrient agar plates. Agar plates were incubated at 37 °C overnight for bacterial colony counting and the bacterial load in the blood (log10 CFU/mL) in each mouse was calculated. In vivo efficacy was calculated as the difference of the log10 CFU/mL blood values between the treated mice and the saline-treated mice at 4 h post dosing (Δlog10 CFU/mL blood = log10 [treated] CFU/mL blood − log10[control] CFU/mL blood).

Swiss mice, kidney = experiment: Nephrotoxicity in mice (kidney histopathology); assay type: in vivo, mouse; settings: for Kidney histopathology (SQS Score): 72 mg/kg/d subcutaneously in six divided doses every 2 h, n = 3; for Kidney histopathology, mice with the SQS score: mouse, in vivo
Protocol: The experimental methodology has been previously reported by our group. Briefly, individual lipopeptide solutions were prepared in sterile saline (6 mg/mL). Swiss mice (female, 7-week-old, 22–28 g) were subcutaneously administered at 12 mg/kg in, 6 doses every 2 h to reach a total dose of 72 mg/kg (n = 3). For high-dose nephrotoxicity experiments, mice were intraperitoneally administered at 20 or 25 mg/kg, in 6 doses every 2 h to reach a total dose of 120 mg/kg (n = 6) or 150 mg/kg (n = 3). At 20 h after the last dose, the right kidney from each mouse was collected and placed in 10% buffered (pH 7.4) formalin (Sigma-Aldrich, Castle Hill, NSW, Australia). The kidneys were subjected to histological examination at the Australian Phenomics Network-Histopathology and Organ Pathology (University of Melbourne, Parkville, VIC, Australia), who was blind to the treatment groups.

A. baumannii FADDI-AB034 = assay type: cell-based, Acinetobacter baumannii; settings: FADDI-AB034
Protocol: (§1) MICs were determined in cation-adjusted Mueller–Hinton broth (CaMHB) by the broth micro-dilution method against ATCC strains and clinical isolates. MICs in the presence of Survanta® were determined as described above against P. aeruginosa ATCC 27853. In the 100 μL of fresh CaMHB containing polymyxins, 10% Survanta® (v/v, 2.5 mg/mL phospholipids) was added. MICs in the presence and absence of Survanta® were compared to determine the effect of binding to lung surfactant on the antibacterial activity of polymyxins.

A. baumannii ATCC 19606 = assay type: cell-based, Acinetobacter baumannii; settings: ATCC 19606
Protocol: as §1

A. baumannii FADDI-AB030 = assay type: cell-based, Acinetobacter baumannii; settings: FADDI-AB030
Protocol: as §1

[2] = tested on: P. aeruginosa FADDI-PA038; assay type: cell-based, Pseudomonas aeruginosa; settings: FADDI-PA038
Protocol: as §1

P. aeruginosa ATCC 27853 [3] = assay type: cell-based, Pseudomonas aeruginosa; settings: for MIC P. aeruginosa ATCC 27853 / MIC, No Survanta: ATCC 27853
Protocol: as §1

[4] = tested on: P. aeruginosa FADDI-PA025; assay type: cell-based, Pseudomonas aeruginosa; settings: FADDI-PA025
Protocol: as §1

[5] = tested on: K. pneumoniae FADDI-KP032; assay type: cell-based, Klebsiella pneumoniae; settings: FADDI-KP032
Protocol: as §1

[6] = tested on: K. pneumoniae FADDI-KP065; assay type: cell-based, Klebsiella pneumoniae; settings: FADDI-KP065
Protocol: as §1

Structure (SMILES)	Log10 CFU/mL blood at 4 h, Mean (P. aeruginosa ATCC 27853 [1]) [Log10 CFU/mL blood]	Δlog10 CFU/mL blood (mean) (P. aeruginosa ATCC 27853 [1]) [log10 CFU/mL blood]	Log10 CFU/mL blood at 4 h, single mouse (P. aeruginosa ATCC 27853 [1])	Delta Log10 CFU/mL blood at 4 h, single mouse (P. aeruginosa ATCC 27853 [1])	Kidney histopathology (SQS Score) (Swiss mice, kidney)	Kidney histopathology, mice with the SQS score (Swiss mice, kidney)	MIC A. baumannii FADDI-AB034 (A. baumannii FADDI-AB034) [µg/mL]	MIC A. baumannii ATCC 19606 (A. baumannii ATCC 19606) [µg/mL]	MIC A. baumannii FADDI-AB030 (A. baumannii FADDI-AB030) [µg/mL]	MIC P. aeruginosa FADDI-PA038 [2] [µg/mL]	MIC P. aeruginosa ATCC 27853 (P. aeruginosa ATCC 27853 [3]) [µg/mL]	MIC P. aeruginosa FADDI-PA025 [4] [µg/mL]	MIC K. pneumoniae FADDI-KP032 [5] [µg/mL]	MIC K. pneumoniae FADDI-KP065 [6] [µg/mL]	impact of lung surfactant on MIC (P. aeruginosa ATCC 27853 [3]; 10% Survanta vs none)	MIC, No Survanta (P. aeruginosa ATCC 27853 [3]) [µg/mL]
CCCCCCCC(=O)N[C@@H](CCN)C(=O)N[C@H](C(=O)N[C@@H](CCN)C(=O)N[C@H]1CCNC(=O)[C@H]([C@@H](C)O)NC(=O)[C@H](CCN)NC(=O)[C@H](CCN)NC(=O)[C@H](CC(C)C)NC(=O)[C@@H]([C@H](C)O)NC(=O)[C@H](CCN)NC1=O)[C@@H](C)O [Lipopeptide F228] (HELM PEPTIDE1{[CCCCCCCC(=O)[*:2]].[Dab].T.[Dab].[Dab].[Dab].[dT].L.[Dab].[Dab].T}$PEPTIDE1,PEPTIDE1,5:R3-11:R2$$$V2.0)	4.13	−3.39	3.99 Log10 CFU/mL blood and 4.11 Log10 CFU/mL blood and 4.28 Log10 CFU/mL blood	-3.52 Log10 CFU/mL blood and -3.40 Log10 CFU/mL blood and -3.24 Log10 CFU/mL blood	+1 (SQS + 1 = mild damage (overall score, 1 to <15))	1/3	32 (≈ 28 µM)	>32	16 (≈ 14 µM)	32 (≈ 28 µM)	0.25 (≈ 0.219 µM)	32 (≈ 28 µM)	2 (≈ 1.75 µM)	16 (≈ 14 µM)		
CCCCCCCC(=O)N[C@@H](CCN)C(=O)N[C@H](C(=O)N[C@@H](CN)C(=O)N[C@H]1CCNC(=O)[C@H]([C@@H](C)O)NC(=O)[C@H](CCN)NC(=O)[C@H](CCN)NC(=O)[C@H]([C@@H](C)O)NC(=O)[C@@H](CC(C)C)NC(=O)[C@H](CCN)NC1=O)[C@@H](C)O [Lipopeptide F251] (HELM PEPTIDE1{[CCCCCCCC(=O)[*:2]].[Dab].T.[NC[C@H](N[*:1])C(=O)[*:2]].[Dab].[Dab].[dL].T.[Dab].[Dab].T}$PEPTIDE1,PEPTIDE1,5:R3-11:R2$$$V2.0)	5.87	−1.57	6.12 Log10 CFU/mL blood and 5.83 Log10 CFU/mL blood and 5.67 Log10 CFU/mL blood	-1.33 Log10 CFU/mL blood and -1.61 Log10 CFU/mL blood and -1.78 Log10 CFU/mL blood	0 (SQS 0 = no significant change (overall score, <1))	3/3	0.25 (≈ 0.221 µM)	0.5 (≈ 0.443 µM)	0.25 (≈ 0.221 µM)	0.5 (≈ 0.443 µM)	0.5 (≈ 0.443 µM)	8 (≈ 7.08 µM)	<0.125	<0.125	slightly impacted	0.5 (≈ 0.443 µM)
CCCCCCCC(=O)N[C@@H](CCN)C(=O)N[C@H](C(=O)N[C@@H](CCCN)C(=O)N[C@H]1CCNC(=O)[C@H]([C@@H](C)O)NC(=O)[C@H](CCN)NC(=O)[C@H](CCN)NC(=O)[C@H]([C@@H](C)O)NC(=O)[C@@H](CC(C)C)NC(=O)[C@H](CCN)NC1=O)[C@@H](C)O [Lipopeptide F252] (HELM PEPTIDE1{[CCCCCCCC(=O)[*:2]].[Dab].T.[Orn].[Dab].[Dab].[dL].T.[Dab].[Dab].T}$PEPTIDE1,PEPTIDE1,5:R3-11:R2$$$V2.0)	5.46	−1.98	5.30 Log10 CFU/mL blood and 5.91 Log10 CFU/mL blood and 5.19 Log10 CFU/mL blood	-2.15 Log10 CFU/mL blood and -1.54 Log10 CFU/mL blood and -2.26 Log10 CFU/mL blood	+1 (SQS + 1 = mild damage (overall score, 1 to <15))	2/3	1 (≈ 0.864 µM)	1 (≈ 0.864 µM)	0.5 (≈ 0.432 µM)	2 (≈ 1.73 µM)	0.5 (≈ 0.432 µM)	>32	<0.125	0.5 (≈ 0.432 µM)		
CCCCCCCC(=O)N[C@@H](CCN)C(=O)N[C@H](C(=O)N[C@@H](CN)C(=O)N[C@H]1CCNC(=O)[C@H]([C@@H](C)O)NC(=O)[C@H](CCN)NC(=O)[C@H](CCN)NC(=O)[C@H](C)NC(=O)[C@@H](CC(C)C)NC(=O)[C@H](CCN)NC1=O)[C@@H](C)O [Lipopeptide F271] (HELM PEPTIDE1{[CCCCCCCC(=O)[*:2]].[Dab].T.[NC[C@H](N[*:1])C(=O)[*:2]].[Dab].[Dab].[dL].A.[Dab].[Dab].T}$PEPTIDE1,PEPTIDE1,5:R3-11:R2$$$V2.0)	5.18	−2.27	5.01 Log10 CFU/mL blood and 5.37 Log10 CFU/mL blood and 5.15 Log10 CFU/mL blood	-2.43 Log10 CFU/mL blood and -2.08 Log10 CFU/mL blood and -2.30 Log10 CFU/mL blood	0 (SQS 0 = no significant change (overall score, <1))	3/3	0.25 (≈ 0.227 µM)	0.5 (≈ 0.455 µM)	0.25 (≈ 0.227 µM)	1 (≈ 0.91 µM)	0.5 (≈ 0.455 µM)	16 (≈ 14.6 µM)	<0.125	<0.125		
CCCCCCCC(=O)N[C@@H](CCN)C(=O)N[C@H](C(=O)N[C@H](CN)C(=O)N[C@H]1CCNC(=O)[C@H]([C@@H](C)O)NC(=O)[C@H](CCN)NC(=O)[C@H](CCN)NC(=O)[C@H]([C@@H](C)O)NC(=O)[C@@H](CC(C)C)NC(=O)[C@H](CCN)NC1=O)[C@@H](C)O [Lipopeptide F300] (HELM PEPTIDE1{[CCCCCCCC(=O)[*:2]].[Dab].T.[NC[C@@H](N[*:1])C(=O)[*:2]].[Dab].[Dab].[dL].T.[Dab].[Dab].T}$PEPTIDE1,PEPTIDE1,5:R3-11:R2$$$V2.0)	5.31	−1.53	5.76 Log10 CFU/mL blood and 5.85 Log10 CFU/mL blood and 4.64 Log10 CFU/mL blood and 4.99 Log10 CFU/mL blood	-1.08 Log10 CFU/mL blood and -1.00 Log10 CFU/mL blood and -2.20 Log10 CFU/mL blood and -1.85 Log10 CFU/mL blood	+2 (SQS + 2 = mild to moderate damage (overall score, 15 to <30))	3/3	<0.125	0.25 (≈ 0.221 µM)	<0.125	1 (≈ 0.885 µM)	0.25 (≈ 0.221 µM)	4 (≈ 3.54 µM)	<0.125	<0.125		1 (≈ 0.885 µM)
